# Measured values taken from patent US20170333532A1, “ADP'ASE-ENHANCED APYRASE THERAPY FOR WOUNDS, MICROBIAL INFECTION, SEPSIS, AND HETEROTOPIC OSSIFICATION” (APT THERAPEUTICS, INC, priority 2014, published 2017).
# What was measured:
# [1] = test system: A. baumannii strain ATCC 19606; experiment: Killing of A. baumannii ATCC 19606 by colistin with Apyrase Agent, CFU count; type: cell-based; conditions: about 10^6 CFU/ml inoculum; Apyrase Agent 1 and 2 U/ml with colistin, or colistin alone at the same concentrations (0.25-2 μg/ml)
# Procedure: (§1) Approximately 10^6 CFU/ml of A. baumannii strain ATCC 19606 is grown on solid medium culture plates in the presence of combinations of 0, 1, and 2 U/ml of Apyrase Agent and 0, 0.25, 0.5, 1, and 2 μg/ml of colistin. After incubation, the numbers of viable cells are determined by counting the colony forming units (CFU) on the plate (data provided as CFU/ml).
# (§2) In this Example (and in subsequent Examples), the colistin is colistin sulfate salt, catalog number C4461 from Sigma-Aldrich (St. Louis, Mo.) and the apyrase is catalog number M0393L from New England BioLabs Inc. (Ipswich, Mass.).
# [2] = test system: Burkholderia cepacia GIIIb AU0062; experiment: Killing of Burkholderia cepacia GIIIb AU0062 by colistin with Apyrase Agent, CFU count; type: cell-based; conditions: colistin at less than 20 μg/ml, with Apyrase Agent 2 U/ml or alone
# Procedure: as §2
# (§3) Burkholderia cepacia GIIIb AU0062 is grown in the presence of combinations of 0 and 2 U/ml of Apyrase Agent and approximately 0 to 20 μg/ml of colistin. After incubation, the numbers of viable cells are determined by counting the colony forming units (CFU) on the plate (data provided as CFU/ml). Apyrase Agent improves the efficiency of killing Burkholderia cepacia GIIIb AU0062 by colistin. Apyrase Agent increases the effectiveness of colistin at less than 20 μg/ml such that less than 10 to 100 CFU/ml are detected relative to greater than 10^4 to 10^5 in the presence of colistin alone at the same concentrations.
# [3] = test system: Burkholderia ambifaria AU5203; experiment: Killing of Burkholderia ambifaria AU5203 by colistin with Apyrase Agent, CFU count; type: cell-based; conditions: colistin at less than 20 μg/ml, with Apyrase Agent 2 U/ml or alone
# Procedure: as §2
# as §3, with “ambifaria AU5203” for “cepacia GIIIb AU0062”, “10^5” for “10^4”, “10^6” for “10^5”
# A. baumannii ATCC DMCI = experiment: Mouse model for wound infection and healing (burn), A. baumannii ATCC DMCI, treatment 24 hours after inoculation; type: in vivo; conditions: wounds treated 24 hours after inoculation, skin collected 48 hours after the burn
# Procedure: e.g., in a mouse model for wound infection and healing. After a burn, A. baumannii ATCC DMCI is inoculated on skin. After 24 hours, the wounds are treated with Apyrase Agent alone, colistin alone, or Apyrase Agent and colistin in combination. Skin samples are collected after another 24 hours and the CFU/g skin of A baumannii ATCC DMCI is determined. […] In the presence of Apyrase Agent or colistin alone, A. baumannii is detected at amounts of approximately 10^8 CFU/g of skin.
# [4] = test system: Burkholderia vietnamiensis AU 10214; experiment: Killing of Burkholderia vietnamiensis AU 10214 by colistin with Apyrase Agent, CFU count; type: cell-based; conditions: colistin at less than 20 μg/ml, with Apyrase Agent 2 U/ml or alone
# Procedure: as §2
# as §3, with “vietnamiensis AU 10214” for “cepacia GIIIb AU0062”, “10^5” for “10^4”, “10^6” for “10^5”
# P. aeruginosa AU0584 = experiment: Killing of P. aeruginosa AU0584 by colistin with Apyrase Agent, CFU count; type: cell-based; conditions: colistin at less than 10 μg/ml, with Apyrase Agent 2 U/ml or alone
# Procedure: as §2
# (§4) P. aeruginosa AU0584 is grown in the presence of combinations of 0 and 2 U/ml of Apyrase Agent and approximately 0 to 20 μg/ml of colistin. After incubation, the numbers of viable cells are determined by counting the colony forming units (CFU) on the plate (data provided as CFU/ml). Apyrase Agent improves the efficiency of killing P. aeruginosa AU0584 by colistin. Apyrase Agent increases the effectiveness of colistin at less than 10 μg/ml such that less than 10 to 100 CFU/ml are detected relative to greater than 10^3 to 10^4 in the presence of colistin alone at the same concentrations.
# [5] = test system: A. baumannii strain AC285; experiment: Killing of colistin-resistant A. baumannii AC285 by colistin with Apyrase Agent, CFU count; type: cell-based; conditions: colistin at less than 5-10 μg/ml, with Apyrase Agent 2 U/ml or alone
# Procedure: as §2
# as §3, with “Approximately 10^5 to 10^6 CFU/ml of the colistin-resistant A. baumannii strain AC285 is” for “Burkholderia cepacia GIIIb AU0062 is”, “to 32” for “to 20”, “killing A. baumannii strain AC285” for “killing Burkholderia cepacia GIIIb AU0062”, “than 5-10” for “than 20”, “than 10^7” for “than 10^4”, “to 10^8” for “to 10^5”
# A. baumannii strain DMCI = experiment: Killing of A. baumannii DMCI by colistin with Apyrase Agent, CFU count; type: cell-based; conditions: about 10^6 CFU/ml inoculum; Apyrase Agent 1 and 2 U/ml with colistin, or colistin alone at the same concentrations (4-32 μg/ml)
# Procedure: as §2
# as §1, with “baumannii strain DMCI is grown” for “baumannii strain ATCC 19606 is grown”, “and 0, 4, 8, 16, and 32” for “and 0, 0.25, 0.5, 1, and 2”, “16, and 32 μg/ml of” for “1, and 2 μg/ml of”
# [6] = test system: P. aeruginosa strain AU1292; experiment: Killing of P. aeruginosa AU1292 by colistin with Apyrase Agent, CFU count; type: cell-based; conditions: colistin at less than 20 μg/ml, with Apyrase Agent 2 U/ml or alone
# Procedure: as §2
# as §4, with “P. aeruginosa strain AU1292 is grown” for “P. aeruginosa AU0584 is grown”, “P. aeruginosa strain AU1292 by colistin.” for “P. aeruginosa AU0584 by colistin.”, “less than 20 μg/ml such” for “less than 10 μg/ml such”, “greater than 10^4 to 10^5” for “greater than 10^3 to 10^4”, “10^4 to 10^5 in the” for “10^3 to 10^4 in the”
substance,measurement,setting,value
colistin sulfate salt,viable cell count,[1],approximately 10^5 CFU/ml
same,numbers of viable cells (CFU),[2],10^4 to 10^5 CFU/ml
same,numbers of viable cells (CFU),[3],10^5 to 10^6 CFU/ml
same,A. baumannii detected on skin,A. baumannii ATCC DMCI,approximately 10^8 CFU/g of skin
same,numbers of viable cells (CFU),[4],10^5 to 10^6 CFU/ml
same,numbers of viable cells (CFU),P. aeruginosa AU0584,10^3 to 10^4 CFU/ml
same,numbers of viable cells (CFU),[5],10^7 to 10^8 CFU/ml
same,viable cell count,A. baumannii strain DMCI,approximately 10^7 CFU/ml
same,numbers of viable cells (CFU),[6],10^4 to 10^5 CFU/ml
